Results: the supplement of paper PMC10307832

Columns and labels:
Assay in all cases: relative viability (nuclei count vs DMSO), 5 days (fraction); higher = more cells survive
EPLC-272H = test system: EPLC-272H
Outline: (§1)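 One day after seeding in 1536-well plates, lung cancer cell lines were dosed by pin tool. Dosing was either single-drug or a fixed anchor-drug dose plus five library-drug doses (not always all listed) in √10 steps. After 5 days, nuclei were stained in one fix-and-stain step and counted on 4× images, and relative viability is the nuclei count of treated wells over that of vehicle wells, given as the median of duplicate plates.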

H3255 = test system: H3255
Outline: as §1

HARA = test system: HARA
Outline: as §1

LC-2-ad = test system: LC-2-ad
Outline: as §1

LOU-NH91 = test system: LOU-NH91
Outline: as §1

NCI-H1650 = test system: NCI-H1650
Outline: as §1

NCI-H1651 = test system: NCI-H1651
Outline: as §1

NCI-H1975 = test system: NCI-H1975
Outline: as §1

NCI-H2009 = test system: NCI-H2009
Outline: as §1

NCI-H2023 = test system: NCI-H2023
Outline: as §1

NCI-H2085 = test system: NCI-H2085
Outline: as §1

NCI-H2087 = test system: NCI-H2087
Outline: as §1

NCI-H2170 = test system: NCI-H2170
Outline: as §1

NCI-H2228 = test system: NCI-H2228
Outline: as §1

NCI-H23 = test system: NCI-H23
Outline: as §1

NCI-H441 = test system: NCI-H441
Outline: as §1

NCI-H650 = test system: NCI-H650
Outline: as §1

NCI-H727 = test system: NCI-H727
Outline: as §1

NCI-H838 = test system: NCI-H838
Outline: as §1

PC-3 [JPC-3] = test system: PC-3 [JPC-3]
Outline: as §1

SW 1573 = test system: SW 1573
Outline: as §1

UMC-11 = test system: UMC-11
Outline: as §1

CN1CCN(CCOc2cc(OC3CCOCC3)c3c(Nc4c(Cl)ccc5c4OCO5)ncnc3c2)CC1 [Saracatinib] + CS(=O)(=O)N1CCN(Cc2cc3nc(-c4cccc5[nH]ncc45)nc(N4CCOCC4)c3s2)CC1 [Pictilisib] (partner 1 µM)
relative viability (EPLC-272H; first compound 0.02 µM): 0.337
relative viability (EPLC-272H; first compound 0.2 µM): 0.298
relative viability (EPLC-272H; first compound 0.6325 µM): 0.388
relative viability (EPLC-272H; first compound 2 µM): 0.232
relative viability (H3255; first compound 0.02 µM): 0.432
relative viability (H3255; first compound 0.2 µM): 0.391
relative viability (H3255; first compound 0.6325 µM): 0.352
relative viability (H3255; first compound 2 µM): 0.156
relative viability (HARA; first compound 0.02 µM): 0.37
relative viability (HARA; first compound 0.6325 µM): 0.374
relative viability (HARA; first compound 2 µM): 0.118
relative viability (LC-2-ad; first compound 0.02 µM): 0.578
relative viability (LC-2-ad; first compound 0.6325 µM): 0.443
relative viability (LC-2-ad; first compound 2 µM): 0.362
relative viability (LOU-NH91; first compound 0.02 µM): 0.535
relative viability (LOU-NH91; first compound 0.2 µM): 0.442
relative viability (LOU-NH91; first compound 0.6325 µM): 0.502
relative viability (LOU-NH91; first compound 2 µM): 0.437
relative viability (NCI-H1650; first compound 0.02 µM): 0.626
relative viability (NCI-H1650; first compound 0.2 µM): 0.468
relative viability (NCI-H1650; first compound 0.6325 µM): 0.377
relative viability (NCI-H1650; first compound 2 µM): 0.314
relative viability (NCI-H1651; first compound 0.02 µM): 0.507
relative viability (NCI-H1651; first compound 0.2 µM): 0.499
relative viability (NCI-H1651; first compound 0.6325 µM): 0.563
relative viability (NCI-H1651; first compound 2 µM): 0.5
relative viability (NCI-H1975; first compound 0.02 µM): 0.331
relative viability (NCI-H1975; first compound 0.6325 µM): 0.298
relative viability (NCI-H1975; first compound 2 µM): 0.174
relative viability (NCI-H2009; first compound 0.02 µM): 0.759
relative viability (NCI-H2009; first compound 0.2 µM): 0.465
relative viability (NCI-H2009; first compound 0.6325 µM): 0.644
relative viability (NCI-H2009; first compound 2 µM): 0.4
relative viability (NCI-H2023; first compound 0.02 µM): 0.267
relative viability (NCI-H2023; first compound 0.2 µM): 0.317
relative viability (NCI-H2023; first compound 0.6325 µM): 0.242
relative viability (NCI-H2023; first compound 2 µM): 0.197
relative viability (NCI-H2085; first compound 0.02 µM): 0.474
relative viability (NCI-H2085; first compound 0.2 µM): 0.345
relative viability (NCI-H2085; first compound 0.6325 µM): 0.481
relative viability (NCI-H2085; first compound 2 µM): 0.377
relative viability (NCI-H2087; first compound 0.02 µM): 0.963
relative viability (NCI-H2087; first compound 0.2 µM): 0.567
relative viability (NCI-H2087; first compound 0.6325 µM): 1.06
relative viability (NCI-H2087; first compound 2 µM): 0.967
relative viability (NCI-H2170; first compound 0.02 µM): 0.355
relative viability (NCI-H2170; first compound 0.2 µM): 0.233
relative viability (NCI-H2170; first compound 0.6325 µM): 0.234
relative viability (NCI-H2170; first compound 2 µM): 0.208
relative viability (NCI-H2228; first compound 0.02 µM): 0.385
relative viability (NCI-H2228; first compound 0.2 µM): 0.206
relative viability (NCI-H2228; first compound 0.6325 µM): 0.244
relative viability (NCI-H2228; first compound 2 µM): 0.207
relative viability (NCI-H23; first compound 0.02 µM): 0.517
relative viability (NCI-H23; first compound 0.6325 µM): 0.424
relative viability (NCI-H23; first compound 2 µM): 0.35
relative viability (NCI-H441; first compound 0.02 µM): 0.461
relative viability (NCI-H441; first compound 0.2 µM): 0.406
relative viability (NCI-H441; first compound 0.6325 µM): 0.501
relative viability (NCI-H441; first compound 2 µM): 0.329
relative viability (NCI-H650; first compound 0.02 µM): 0.771
relative viability (NCI-H650; first compound 0.2 µM): 0.837
relative viability (NCI-H650; first compound 0.6325 µM): 0.871
relative viability (NCI-H650; first compound 2 µM): 0.86
relative viability (NCI-H727; first compound 0.02 µM): 0.295
relative viability (NCI-H727; first compound 0.2 µM): 0.423
relative viability (NCI-H727; first compound 0.6325 µM): 0.354
relative viability (NCI-H727; first compound 2 µM): 0.407
relative viability (NCI-H838; first compound 0.02 µM): 0.351
relative viability (NCI-H838; first compound 0.2 µM): 0.447
relative viability (NCI-H838; first compound 0.6325 µM): 0.344
relative viability (NCI-H838; first compound 2 µM): 0.326
relative viability (PC-3 [JPC-3]; first compound 0.02 µM): 0.782
relative viability (PC-3 [JPC-3]; first compound 0.2 µM): 0.613
relative viability (PC-3 [JPC-3]; first compound 0.6325 µM): 0.475
relative viability (PC-3 [JPC-3]; first compound 2 µM): 0.395
relative viability (SW 1573; first compound 0.02 µM): 0.47
relative viability (SW 1573; first compound 0.2 µM): 0.451
relative viability (SW 1573; first compound 0.6325 µM): 0.456
relative viability (SW 1573; first compound 2 µM): 0.295
relative viability (UMC-11; first compound 0.02 µM): 0.691
relative viability (UMC-11; first compound 0.6325 µM): 0.836
relative viability (UMC-11; first compound 2 µM): 0.679
